The source made the active and inactive calls. No stated cut-off is given here; in the data, actives have a measured IC50 and inactives only a lower limit.

For the assay, the target named is Envelope glycoprotein gp160 (Human immunodeficiency virus 1, UniProt Q6QLK5). The experiment in a line: inhibitors of HIV fusion peptide binding, primary screen, biochemical, uHTS, fluorescence dequenching (AID 1986).
Sequence of Envelope glycoprotein gp160 (Q6QLK5 whole entry, the tested form may be a part): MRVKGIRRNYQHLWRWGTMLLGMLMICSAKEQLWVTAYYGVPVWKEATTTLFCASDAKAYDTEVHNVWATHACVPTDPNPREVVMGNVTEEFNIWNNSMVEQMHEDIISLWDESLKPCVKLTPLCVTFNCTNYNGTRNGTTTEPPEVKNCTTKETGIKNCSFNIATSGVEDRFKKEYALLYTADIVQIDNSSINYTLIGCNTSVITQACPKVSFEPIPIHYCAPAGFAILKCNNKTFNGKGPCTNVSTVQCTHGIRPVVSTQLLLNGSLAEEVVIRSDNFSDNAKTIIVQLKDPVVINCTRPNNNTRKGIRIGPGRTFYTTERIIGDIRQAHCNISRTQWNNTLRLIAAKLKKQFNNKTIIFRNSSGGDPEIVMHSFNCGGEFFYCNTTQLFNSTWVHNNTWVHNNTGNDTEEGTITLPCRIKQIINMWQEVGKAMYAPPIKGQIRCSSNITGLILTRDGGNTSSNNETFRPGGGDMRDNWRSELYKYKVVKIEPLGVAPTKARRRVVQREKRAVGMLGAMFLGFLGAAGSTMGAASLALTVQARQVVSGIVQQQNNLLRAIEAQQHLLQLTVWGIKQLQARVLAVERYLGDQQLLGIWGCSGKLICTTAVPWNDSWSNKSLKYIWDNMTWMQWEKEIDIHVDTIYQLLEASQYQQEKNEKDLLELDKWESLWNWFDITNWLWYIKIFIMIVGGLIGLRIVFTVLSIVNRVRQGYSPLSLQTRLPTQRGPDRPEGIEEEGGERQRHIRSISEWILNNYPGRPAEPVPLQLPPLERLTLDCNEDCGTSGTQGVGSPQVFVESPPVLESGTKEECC
Regarding `CCCCCNC(=O)c1ccc2c(=O)[nH]c3c(C(=O)NCC4CCCO4)sc(=S)n3c2c1` (stereo not drawn), the 50% inhibitory concentration (IC50) (in general, the point on the concentration scale where inhibition reaches its midpoint) is 20 µM (active). The result for `CC(C)(C)c1ccc2c(c1)OC(C(=O)N/N=C\c1ccc(-c3cccc(C(=O)O)c3)o1)CO2` (stereo not drawn) reads 14.1 µM (active). The result for `COc1ccc(-c2csc(NC(=O)c3ccccc3NS(=O)(=O)c3ccc(C)cc3)n2)cc1` reads 12.4 µM (active).

Source of the values: ChEMBL document CHEMBL1201862, “PubChem BioAssay data set” (2004).
